Laboratory results as given in BigSolDB 2.1.

O=C(O)/C=C/c1ccc(O)cc1
solubility (mole fraction)
Conditions	in acetone	in ethanol	in ethyl acetate	in isobutanol	in isopropanol	in methanol	in methyl acetate	in n-butanol	in n-propanol
293.15 K	0.0383	0.0409	0.0113	0.0193	0.0294	0.036	0.0146	0.0323	0.0334
298.15 K	0.0428	0.0456	0.0128	0.0226	0.0331	0.0395	0.0176	0.0371	0.0373
303.15 K	0.0468	0.0507	0.0144	0.0256	0.0373	0.0438	0.0205	0.0432	0.0429
308.15 K	0.0516	0.0552	0.0162	0.0295	0.0417	0.0484	0.0244	0.0503	0.0478
313.15 K	0.0574	0.0614	0.0183	0.0332	0.0462	0.053	0.0292	0.0582	0.0525
318.15 K	0.0619	0.0666	0.0205	0.0371	0.0511	0.0573	0.034	0.0647	0.0588
323.15 K	0.0685	0.0725	0.0229	0.0425	0.0562	0.063	0.0394	0.0731	0.0652
328.15 K	0.0756	0.0785	0.0256	0.0483	0.0617	0.0693	0.0457	0.0823	0.0714
333.15 K	0.0825	0.0861	0.0286	0.0535	0.067	0.0757	0.0519	0.0924	0.0791
